Test in all cases: inhibition of tumour cell growth, NCI panel, 48 h
Assay [1] relates to RPMI-8226.
Assay [2] deals with UACC-257.
In assay [3] the test system is HCT-116.
In assay [4] the test system is OVCAR-3.
Assay [5] relates to SW-620.
In assay [6] the test system is IGROV-1.
The subject of assay [7] is K562.
Assay [8] deals with Malme-3M.
The subject of assay [9] is CCRF-CEM.
The subject of assay [10] is NCI-H226.
The subject of assay [11] is CAKI-1.
In assay [12] the test system is MOLT-4.
For assay [13], the system named is SF-539.
For assay [14], the system named is SK-OV-3.
The subject of assay [15] is NCI/ADR-RES.
Assay [16] concerns KM12.
Assay [17] relates to SNB-19.
For assay [18], the system named is HOP-92.
Assay [19] has as its system TK-10.
Assay [20] concerns 786-0.

Here are results for eleven compounds from ChEMBL document CHEMBL1201862, “PubChem BioAssay data set” (2004).

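Values below derive from 48-hour exposures of cells grown in 96-well plates, with endpoints linearly interpolated between the two concentrations bracketing the appropriate inhibition level. GI50 is the concentration that inhibits growth by half.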 Calls of active or inactive are those of the source. Rule as the data show it: active = GI50 up to about 1.1 µM and inactive = higher.

As to `Nc1ncnc2c1ncn2[C@@H]1O[C@H](COP(=O)(O)O)[C@@H](O)[C@@H]1O`, the GI50 in assay [1], in [2], in [3], in assay [4], in assay [5] and in assay [6] was > 50 µM (inactive) each time. Moreover, the GI50 in assay [7] is > 50 µM (inactive); in [8], > 50 µM (inactive); in [9] it was > 50 µM (inactive); in assay [10] it was > 50 µM (inactive); in [11], > 50 µM (inactive); in assay [12], > 38.8 µM (inactive). The GI50 in [13] was > 50 µM (inactive); in [14] it was > 50 µM (inactive); in assay [15] it was > 24.5 µM (inactive); in assay [16], > 50 µM (inactive); in assay [17], > 50 µM (inactive); in assay [18], > 31.3 µM (inactive).
For `CCOC(=O)/C(=N/Nc1ccc(Cl)cc1)N1C(=S)N(C)N=C(C)C=C1S`, the GI50 was > 100 µM (inactive) in [1]; > 100 µM (inactive) in [2]; > 100 µM (inactive) in assay [3]; 81.3 µM (inactive) in [4]; > 100 µM (inactive) in assay [5]; > 100 µM (inactive) in [6]. For the same compound, the GI50 in assay [7] was > 100 µM (inactive); in assay [9], > 100 µM (inactive); in [11], 54.5 µM (inactive); in assay [12], > 100 µM (inactive); in assay [13], 57.1 µM (inactive); in [19], 30.5 µM (inactive). Moreover, the GI50 in [14] was 40.3 µM (inactive); in [15], 42.9 µM (inactive); in [16], > 100 µM (inactive); in assay [17] it was 34.6 µM (inactive); in [18], 50.7 µM (inactive).
`COc1ccc2c(c1)CCc1cc(OC)ccc1/[N+]([O-])=[N+]\2[O-]`: the GI50 was 4.86 µM (inactive) in assay [1]; 18.3 µM (inactive) in assay [2]; 12.4 µM (inactive) in [3]; 16.6 µM (inactive) in [4]; 7.1 µM (inactive) in [5]; 12.1 µM (inactive) in [6]. Also, the GI50 is 8.91 µM (inactive) in assay [7]; 19.5 µM (inactive) in [8]; 1.92 µM (inactive) in [9]; 6.27 µM (inactive) in assay [20]; 17.6 µM (inactive) in assay [11]; 3.67 µM (inactive) in assay [12]. Further, the GI50 in assay [13] is 21.2 µM (inactive); in assay [19], 22.4 µM (inactive); in assay [14] it was 18.7 µM (inactive); in assay [15], 24.9 µM (inactive); in assay [16] it was 20.2 µM (inactive); in assay [17], 21.6 µM (inactive). The GI50 in assay [18] was 13.2 µM (inactive).
As to `CN(C)CCCCN1CCc2c(n(C)c3ccccc23)C1=O`, the GI50 in assay [2] is 16.5 µM (inactive); in assay [3] it was 22.4 µM (inactive); in assay [4], > 81.3 µM (inactive); in assay [5] it was 27.4 µM (inactive); in assay [6], 57.9 µM (inactive); in assay [7], 26.2 µM (inactive). The GI50 in assay [8] was 19.2 µM (inactive); in assay [9] it was 63.2 µM (inactive); in assay [20] it was 33.5 µM (inactive); in [10], > 59.7 µM (inactive); in assay [11] it was 29.6 µM (inactive); in assay [12], 50.6 µM (inactive). The GI50 is > 63.7 µM (inactive) in assay [14]; > 67.8 µM (inactive) in [15]; 44.4 µM (inactive) in [16]; > 74 µM (inactive) in assay [17]; 42.6 µM (inactive) in assay [18].
Consider `COc1cc(Nc2nc3ccc(C(F)(F)F)cc3nc2C(=O)O)cc(OC)c1OC`, for which the GI50 in [1] was 21.5 µM (inactive); in assay [2], 20 µM (inactive); in [3], 18.5 µM (inactive); in [4] it was 32.1 µM (inactive); in assay [5] it was 25.7 µM (inactive); in [6], 25.6 µM (inactive). For the same compound, the GI50 was 17.9 µM (inactive) in assay [7]; 27.1 µM (inactive) in assay [8]; 41.6 µM (inactive) in [9]; 27.8 µM (inactive) in assay [20]; 21.4 µM (inactive) in [10]; 24.8 µM (inactive) in assay [11]. For the same compound, the GI50 in assay [12] is 29.2 µM (inactive); in assay [13], 31.4 µM (inactive); in assay [19] it was 22.8 µM (inactive); in [14], 29.2 µM (inactive); in assay [15], 21.3 µM (inactive); in assay [16] it was 23.6 µM (inactive). The GI50 in assay [17] was 29.9 µM (inactive).
In the case of `C=C1C(=O)C[C@@]23CCC[C@@]12CC(O)C3` (stereo not given in full), the GI50 was 15.6 µM (inactive) in [1]; 18.7 µM (inactive) in [2]; 19 µM (inactive) in assay [3]; 13.1 µM (inactive) in assay [4]; 18.7 µM (inactive) in assay [5]; 3.93 µM (inactive) in assay [6]. Besides, the GI50 in assay [7] was 24.5 µM (inactive); in [8] it was 0.855 µM (active); in assay [9] it was 10.3 µM (inactive); in assay [10], 21.2 µM (inactive); in assay [11] it was > 10 µM (inactive); in assay [12], 23.4 µM (inactive). Besides, the GI50 in assay [13] is 25.6 µM (inactive); in assay [14], 28.1 µM (inactive); in assay [15], 13.4 µM (inactive); in assay [16] it was 20.8 µM (inactive); in assay [17] it was 85.7 µM (inactive); in assay [18], 19.3 µM (inactive).
For the compound `COC(O)C(=O)c1ccc2c(c1)CC1(C2)Cc2cc3c(cc2C1=O)CCC3` (stereo not given), the GI50 is 12.3 µM (inactive) in assay [1]; 21.4 µM (inactive) in assay [2]; 18.9 µM (inactive) in [3]; 18.9 µM (inactive) in assay [4]; 14.5 µM (inactive) in assay [5]; 16.1 µM (inactive) in assay [6]. Moreover, the GI50 in assay [7] is 2.94 µM (inactive); in assay [8], 16.2 µM (inactive); in assay [9] it was 11.9 µM (inactive); in assay [20] it was 17.6 µM (inactive); in assay [10] it was 19.5 µM (inactive); in [11] it was 16.9 µM (inactive). Besides, the GI50 was 15 µM (inactive) in assay [12]; 18.1 µM (inactive) in [13]; 21.6 µM (inactive) in assay [19]; 16.7 µM (inactive) in [14]; 42.6 µM (inactive) in assay [15]; 20.9 µM (inactive) in assay [16]. Also, the GI50 in assay [17] was 18.2 µM (inactive).
Take `CC1CNC(NS(=O)(=O)c2cc(C(=O)Nc3ccc(F)cc3)c(Cl)cc2S)=NN1` (stereo not given): the GI50 in assay [1] was 34.9 µM (inactive); in [2] it was > 100 µM (inactive); in assay [3] it was 37.7 µM (inactive); in [4], 92.9 µM (inactive); in assay [5] it was 45.3 µM (inactive); in assay [6], 71 µM (inactive). In addition, the GI50 in assay [7] was 32.8 µM (inactive); in assay [8], 29.1 µM (inactive); in assay [9] it was 42.5 µM (inactive); in assay [20] it was > 100 µM (inactive); in assay [10] it was 36.4 µM (inactive); in assay [11], > 100 µM (inactive). The GI50 in assay [12] is 59.3 µM (inactive); in assay [13], 39.5 µM (inactive); in assay [19], > 100 µM (inactive); in assay [14], > 100 µM (inactive); in [15], > 100 µM (inactive); in [16] it was 49.3 µM (inactive). The GI50 in assay [17] was 87.1 µM (inactive).
In the case of `CCCCC(C)C1CCC2(C)C=CC(=O)C(C)=C2C1O` (stereo not given), the GI50 in assay [1], in assay [2], in assay [3], in assay [4], in assay [5] and in assay [6] was > 100 µM (inactive) throughout. The GI50 in assay [7], in assay [9], in [10], in [11], in assay [12] and in assay [13] was > 100 µM (inactive) in each case. In addition, the GI50 in assay [14], in assay [15], in [16], in [17] and in assay [18] was > 100 µM (inactive) in each case.
As for `COc1ccc2cc(/C=N/NC(=O)Nc3ccccc3)ccc2c1`, the GI50 in assay [1], in [2], in assay [3], in assay [4], in assay [5] and in assay [6] was > 100 µM (inactive) throughout. For the same compound, the GI50 in assay [7], in [8], in assay [9], in assay [10], in assay [11] and in assay [12] was > 100 µM (inactive) each time. In addition, the GI50 in assay [19], in assay [14], in assay [15], in assay [16], in [17] and in assay [18] was > 100 µM (inactive) throughout.
For `N#Cc1cc2c(cc1C#N)/C(=N\c1cccc(N)n1)N/C2=N\c1cccc(N)n1`, the GI50 in assay [1] was 32.7 µM (inactive); in assay [2], 28.1 µM (inactive); in assay [3], 11.1 µM (inactive); in [4], 29.5 µM (inactive); in assay [5], 11.4 µM (inactive); in [6], 20.7 µM (inactive). Besides, the GI50 in assay [7] is 13.4 µM (inactive); in assay [8], 14.3 µM (inactive); in assay [9], 4.74 µM (inactive); in assay [20] it was 12.9 µM (inactive); in [10], > 100 µM (inactive); in [11], 15.8 µM (inactive). In addition, the GI50 in [12] is 3.78 µM (inactive); in assay [13] it was 6.75 µM (inactive); in assay [19], 19.3 µM (inactive); in assay [14], 13.7 µM (inactive); in assay [15], 19.2 µM (inactive); in [16], 36.8 µM (inactive). Further, the GI50 in assay [17] was 70 µM (inactive).
